Data set [1] in a line: oxidative metabolism in liver microsomes from rats. Type of data set: in vitro ADME. To be noted: rat liver microsomes, 45 min. On the procedure:
(§1) All liver microsomal and cytosolic fractions were prepared using the following procedure. Thawed livers were homogenized with 2 volumes of 50 mM Tris-buffer (pH 7.5) containing 1.15% KCl. For microsomal and cytosolic preparations, the homogenate was centrifuged for 20 min at 9,000×g and the resulting supernatant was centrifuged for 60 min at 105,000×g. The resulting cytosolic fractions were re-centrifuged at 105,000×g for 60 min. Fractions of cytosol were aliquoted into small tubes and stored at −70° C. Subsequently, the microsomal pellets were washed with 10 mM EDTA containing 1.15% KCl and were centrifuged at 105,000×g for 60 min. Washed microsomes were resuspended in 10 mM potassium phosphate buffer (pH 7.4) containing 250 mM sucrose, aliquoted into small tubes, and stored at −70° C. Protein concentrations were determined by a modified Lowry assay (Smith et al., 1985). The specific cytochrome P450 content in each microsomal preparation was measured as described by Omura and Sato, J. Biol. Chem. 239, 2370-2378 (1964). […]
(§2) Method A was conducted on a Shimadzu HPLC system (Shimadzu Scientific Instruments Inc., Columbia Md.). The parent compounds and their metabolites were monitored directly using a radiometric detector (INUS Systems Inc. Tampa, Fla.) and Ultima-Flow M (Packard Instrument Co., Meridan Conn.) as scintillant at a flow rate of 3 mL/min. […]
On the technique in general: Liver microsomes are vesicles of endoplasmic reticulum, rich in cytochrome P450 enzymes.

Data set [2] can be described thus: oxidative metabolism in liver microsomes from humans. To be noted: human liver microsomes, 45 min. Format: in vitro ADME. The procedure: as §1, §2
For data set [3], the target named is T1, recombinant human CYP isozymes (Homo sapiens, UniProt P08684).
T1 construct: host or cells: Baculovirus-infected sf21 insect cells (microsomes)
T1 sequence (P08684 2-503 limits assumed): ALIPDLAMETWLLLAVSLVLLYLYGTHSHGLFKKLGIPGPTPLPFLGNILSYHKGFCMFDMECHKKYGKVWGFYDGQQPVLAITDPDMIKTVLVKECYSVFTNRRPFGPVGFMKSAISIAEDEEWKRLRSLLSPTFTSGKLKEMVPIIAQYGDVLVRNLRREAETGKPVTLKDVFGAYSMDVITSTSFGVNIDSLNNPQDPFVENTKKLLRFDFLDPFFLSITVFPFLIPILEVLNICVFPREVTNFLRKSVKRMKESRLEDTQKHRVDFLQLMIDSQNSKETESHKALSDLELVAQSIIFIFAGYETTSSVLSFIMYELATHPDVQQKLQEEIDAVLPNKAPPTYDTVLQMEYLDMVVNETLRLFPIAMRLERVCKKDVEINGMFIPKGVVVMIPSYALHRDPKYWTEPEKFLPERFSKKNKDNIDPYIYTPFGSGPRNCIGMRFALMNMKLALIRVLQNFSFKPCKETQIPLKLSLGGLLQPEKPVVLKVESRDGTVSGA
The data set is described as follows: metabolism by microsomes containing recombinant human CYP isozymes. Format: in vitro ADME. To be noted: parent to M-1 (N-dealkylation); M-1 to M-2 (oxidation); M-3 to M-4 (hydroxylation); M-2 to M-5 (conversion). On the procedure:
Hepatocytes were harvested from male Sprague-Dawley rat livers or human livers and cultured on a matrigel support and treated with 0.1 μM dexamethasone or 50 μM rifampicin, respectively, for 48 hr prior to the addition of the test compounds. A 2.5 mM stock solution of [^14C]2-(R)-(1-(R)-(3,5-bis(trifluoromethyl)-phenyl)ethoxy)-3-(S)-(4-fluoro)phenyl-4-(3-(5-oxo-1H,4H-1,2,4-triazolo)methylmorpholine, [^14C]M-1 or [^14C]M-2 in DMSO was added to the plates such that the final concentration of test compound was 25 μM and DMSO was 1% (v/v). The cultures were incubated for 4, 6 or 24 hr for rat hepatocytes and 48 hr for human hepatocytes. The incubation mixtures (500 μL) contained 10 μM of test compound, 100 mM phosphate buffer pH 7.4, NADPH-regenerating system, microsomes containing expressed CYP isoforms (CYP1A2, CYP2A6, CYP2B6, CYP2C8, CYP2C9, CYP2C19, CYP2D6, CYP2E1 or CYP3A4) and cytochrome P-450 reductase. The reactions were initiated by adding NADP and proceeded at 37° C. for 15-45 min. Acetonitrile extracts from microsomal and hepatocyte incubates were dissolved in 50% aqueous methanol and fractionated by HPLC. The separation was accomplished on a Zorbax RX C8 analytical column (5 μm, 4.6×250 mm). The mobile phase consisted of solvent A (10 mM ammonium acetate in water) and solvent B (7.3 mM ammonium acetate in 92.7% acetonitrile and 7.3% methanol. The column was eluted by a linear gradient from 35 to 80% B over 40 min at a flow rate of 1 mL/min. Fractions of major metabolites were subjected to LC-MS/MS analysis. Further purification was done using isocratic conditions prior to NMR analysis.
The incubation mixtures (500 μL) contained 10 or 25 μM of test compounds, 100 mM phosphate buffer pH 7.4, NADPH-regenerating system (5 mM glucose-6-phosphate, 1 mM NADP and 0.7 I.U/mL glucose 6-phosphate dehydrogenase), 0.5 to 2 mg/mL liver microsomal protein prepared from rats and humans or microsomes from Baculovirus-infected sf21 cells containing 20 to 200 pmol expressed CYP isoforms (CYP1A2, CYP2A6, CYP2B6, CYP2C8, CYP2C9, CYP2C19, CYP2D6, CYP2E1 or CYP3A4) and cytochrome P450 reductase. Stock solutions of the substrates in methanol were made such that final concentration of methanol in the reaction mixture was 3%. The reactions were initiated by adding 50 μL of 10 mM NADP and proceeded at 37° C. for 15-45 min. After incubation, the reactions were terminated by the addition of four volumes of acetonitrile. The suspensions were mixed vigorously and centrifuged at 3000×g for 5 min. The supernatants were dried and redissolved in 50% methanol for HPLC analysis using method A described below.

For data set [4], the target named is T2, human NK1 receptor (Homo sapiens, UniProt P25103).
T2 construct: expressed in transfected cells
T2 sequence (P25103 whole entry): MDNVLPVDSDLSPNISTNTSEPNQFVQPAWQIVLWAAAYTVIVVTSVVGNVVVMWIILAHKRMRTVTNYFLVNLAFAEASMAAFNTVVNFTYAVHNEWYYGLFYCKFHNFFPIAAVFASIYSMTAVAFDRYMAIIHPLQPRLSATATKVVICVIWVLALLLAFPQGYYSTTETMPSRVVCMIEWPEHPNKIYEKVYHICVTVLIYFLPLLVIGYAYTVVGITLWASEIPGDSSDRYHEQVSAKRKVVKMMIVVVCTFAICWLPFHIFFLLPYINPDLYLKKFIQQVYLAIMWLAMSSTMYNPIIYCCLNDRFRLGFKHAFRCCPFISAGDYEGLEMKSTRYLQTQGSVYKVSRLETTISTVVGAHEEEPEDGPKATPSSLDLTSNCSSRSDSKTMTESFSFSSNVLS
The data set is described as follows: human NK1 receptor binding assay (125I-substance P, COS or CHO cells). On the procedure:
To express the cloned human neurokinin-1 receptor (NKIR) transiently in COS, the cDNA for the human NKIR was cloned into the expression vector pCDM9 which was derived from pCDM8 (INVITROGEN) by inserting the ampicillin resistance gene (nucleotide 1973 to 2964 from BLUESCRIPT SK+) into the Sac II site. Transfection of 20 ug of the plasmid DNA into 10 million COS cells was achieved by electroporation in 800 ul of transfection buffer (135 mM NaCl, 1.2 mM CaCl2, 1.2 mM MgCl2, 2.4 mM K2HPO4, 0.6 mM KH2PO4, 10 mM glucose, 10 mM HEPES pH 7.4) at 260 V and 950 uF using the IBI GENEZAPPER (IBI, New Haven, Conn.). The cells were incubated in 10% fetal calf serum, 2 mM glutamine, 100U/ml penicillin-streptomycin, and 90% DMEM media (GIBCO, Grand Island, N.Y.) in 5% CO2 at 37° C. for three days before the binding assay.
To establish a stable cell line expressing the cloned human NK1R, the cDNA was subcloned into the vector pRcCMV (INVITROGEN). Transfection of 20 ug of the plasmid DNA into CHO cells was achieved by electroporation in 800 ul of transfection buffer suplemented with 0.625 mg/ml Herring sperm DNA at 300 V and 950 uF using the IBI GENEZAPPER (IBI). The transfected cells were incubated in CHO media [10 % fetal calf serum, 100 U/ml pennicilin-streptomycin, 2 mM glutamine, 1/500 hypoxanthine-thymidine (ATCC), 90% IMDM media (JRH BIOSClENCES, Lenexa, Kans.), 0.7 mg/ml G418 (GIBCO)] in 5% CO2 at 37° C. until colonies were visible. Each colony was separated and propagated. The cell clone with the highest number of human NK1R was selected for subsequent applications such as drug screening.
The binding assay of human NK1R expressed in either COS or CHO cells is based on the use of ^125I-substance P (^125I-SP, from DU PONT, Boston, Mass.) as a radioactively labeled ligand which competes with unlabeled substance P or any other ligand for binding to the human NK1R. Monolayer cell cultures of COS or CHO were dissociated by the non-enzymatic solution (SPECIALTY MEDIA, Lavallette, N.J.) and resuspended in appropriate volume of the binding buffer (50 mM Tris pH 7.5, 5 mM MnCl2, 150 mM NaCl, 0.04 mg/ml bacitracin, 0.004 mg/ml leupeptin, 0.2 mg/ml BSA, 0.01 mM phosphoramidon) such that 200 ul of the cell suspension would give rise to about 10,000 cpm of specific ^125I-SP binding (approximately 50,000 to 200,000 cells). […] The bound radioactivity was separated from unbound radioactivity by GF/C filter (BRANDEL, Gaithersburg, Md.) which was pre-wetted with 0.1 % polyethylenimine. The filter was washed with 3 ml of wash buffer (50 mM Tris pH 7.5, 5 mM MnCl2, 150 mM NaCl) three times and its radioactivity was determined by gamma counter.

Broadly, the IC50 is the midpoint of a concentration-inhibition curve. A high value points to a need for much substance.

Take `C[C@@H](O[C@H]1OCCN(Cc2n[nH]c(=O)[nH]2)[C@H]1c1ccc(F)cc1)c1cc(C(F)(F)F)cc(C(F)(F)F)c1` [Parent Compound, 5-[[(2R,3S)-2-[(1R)-1-[3,5-bis(trifluoromethyl)phenyl]ethoxy]-3-(4-fluorophenyl)4-morpholinyl]methyl]-1,2-dihydro-3H-1,2,4-triazol-3-one, reference compound]: the “conversion in microsomes in the presence of an NADPH regenerating system” value in data set [1] and in data set [2] was less than 2% each time. Further, in data set [3], the “CYP isozyme primarily responsible for the metabolic step” value (“CYP isozyme primarily responsible” for short) is reported as “CYP3A4”.

Regarding `C[C@@H](O[C@H]1OCCN=C1c1ccc(F)cc1)c1cc(C(F)(F)F)cc(C(F)(F)F)c1` [Metabolite M-2, (2R)-2-[(1R)-1-[3,5-bis(trifluoromethyl)phenyl]ethoxy]-3-(4-fluorophenyl)-5,6-dihydro-2H-1,4-oxazine], the IC50 in data set [4] was approximately 10 nM. Further, the “CYP isozyme primarily responsible” value in data set [3] is reported as “CYP3A4”.

In data set [4], `C[C@@H](O[C@H]1OCC(=O)N[C@H]1c1ccc(F)cc1)c1cc(C(F)(F)F)cc(C(F)(F)F)c1` [Metabolite M-3, (5S,6R)-6-[(1R)-1-[3,5-bis(trifluoromethyl)phenyl]ethoxy]-5-(4-fluorophenyl)-3-morpholinone] came in with an IC50 of 4 nM. Further, the “CYP isozyme primarily responsible” value in data set [3] was “CYP3A4”.

With `C[C@@H](O[C@@H](OCC(=O)O)C(O)c1ccc(F)cc1)c1cc(C(F)(F)F)cc(C(F)(F)F)c1` (stereo partly drawn) [Metabolite M-6, [(1R)-1-[(1R)-1-[3,5-bis(trifluoromethyl)phenyl]ethoxy]-2-(4-fluorophenyl)-2-hydroxyethoxy]acetic acid], in data set [4], the IC50 came to 18 nM.

Source of the values: patent US6727244B2, “Mammalian metabolites of a tachykinin receptor antagonist” (Merck & Co., Inc., priority 2000, dated 2004).
